# Laboratory results published in patent publication US20260365634A1, “HERBICIDAL PYRAZOLE COMPOUNDS” (SYNGENTA CROP PROTECTION AG, priority 2022, published 2026).
# Columns and labels:
# Assay type in all cases: in vivo
# Details in all cases: 250 g/ha, evaluated after 13 days
# Setaria faberi (SETFA) [1] = assay: Pre-emergence herbicidal glasshouse test
# Description: (§1) Seeds of a variety of test species are sown in standard soil in pots Amaranthus palmeri (AMAPA), Amaranthus retoflexus (AMARE), Echinochloa crus-galli (ECHCG), Ipomoea hederacea (IPOHE), Setaria faberi (SETFA). After cultivation for one day (pre-emergence) or after 8 days cultivation (post-emergence) under controlled conditions in a glasshouse (at 24/16 °C, day/night; 14 hours light; 65% humidity), the plants are sprayed with an aqueous spray solution derived from the formulation of the technical active ingredient in acetone/water (50:50) solution containing 0.5% Tween 20 (polyoxyethelyene sorbitan monolaurate, CAS RN 9005-64-5). Compounds are applied at 250 g/ha unless otherwise stated. The test plants are then grown in a glasshouse under controlled conditions in a glasshouse (at 24/16 °C, day/night; 14 hours light; 65% humidity) and watered twice daily. After 13 days for pre and post-emergence, the test is evaluated for the percentage damage caused to the plant. The biological activities are shown in the following table on a five-point scale (5=81-100%; 4=61-80%; 3=41-60%; 2=21-40%; 1=0-20%).
# [2] = test system: Echinochloa crus-galli (ECHCG); assay: Pre-emergence herbicidal glasshouse test
# Description: as §1
# [3] = test system: Amaranthus palmeri (AMAPA); assay: Pre-emergence herbicidal glasshouse test
# Description: as §1
# [4] = test system: Ipomoea hederacea (IPOHE); assay: Pre-emergence herbicidal glasshouse test
# Description: as §1
# [5] = test system: Amaranthus retoflexus (AMARE); assay: Pre-emergence herbicidal glasshouse test
# Description: as §1
# Setaria faberi (SETFA) [6] = assay: Post-emergence herbicidal glasshouse test
# Description: as §1
# [7] = test system: Echinochloa crus-galli (ECHCG); assay: Post-emergence herbicidal glasshouse test
# Description: as §1
# [8] = test system: Amaranthus palmeri (AMAPA); assay: Post-emergence herbicidal glasshouse test
# Description: as §1
# [9] = test system: Ipomoea hederacea (IPOHE); assay: Post-emergence herbicidal glasshouse test
# Description: as §1
# [10] = test system: Amaranthus retoflexus (AMARE); assay: Post-emergence herbicidal glasshouse test
# Description: as §1
structure (smiles),measurement,setting,value
FC(F)CCn1nc(C(F)F)cc1Cc1ncc(Cl)cn1 [Compound 1.008],"percentage damage caused to the plant (five-point scale), SETFA",Setaria faberi (SETFA) [1],4 (61-80%)
same,"percentage damage caused to the plant (five-point scale), ECHCG",[2],4 (61-80%)
same,"percentage damage caused to the plant (five-point scale), AMAPA",[3],5 (81-100%)
same,"percentage damage caused to the plant (five-point scale), IPOHE",[4],3 (41-60%)
same,"percentage damage caused to the plant (five-point scale), AMARE",[5],5 (81-100%)
same,"percentage damage caused to the plant (five-point scale), SETFA",Setaria faberi (SETFA) [6],1 (0-20%)
same,"percentage damage caused to the plant (five-point scale), ECHCG",[7],1 (0-20%)
same,"percentage damage caused to the plant (five-point scale), AMAPA",[8],3 (41-60%)
same,"percentage damage caused to the plant (five-point scale), IPOHE",[9],4 (61-80%)
same,"percentage damage caused to the plant (five-point scale), AMARE",[10],3 (41-60%)
FC(F)(Cl)c1cc(Cc2ncc(Cl)cn2)n(CCC2CC2)n1 [Compound 1.032],"percentage damage caused to the plant (five-point scale), SETFA",Setaria faberi (SETFA) [1],5 (81-100%)
same,"percentage damage caused to the plant (five-point scale), ECHCG",[2],5 (81-100%)
same,"percentage damage caused to the plant (five-point scale), AMAPA",[3],5 (81-100%)
same,"percentage damage caused to the plant (five-point scale), IPOHE",[4],5 (81-100%)
same,"percentage damage caused to the plant (five-point scale), AMARE",[5],5 (81-100%)
same,"percentage damage caused to the plant (five-point scale), SETFA",Setaria faberi (SETFA) [6],5 (81-100%)
same,"percentage damage caused to the plant (five-point scale), ECHCG",[7],4 (61-80%)
same,"percentage damage caused to the plant (five-point scale), AMAPA",[8],5 (81-100%)
same,"percentage damage caused to the plant (five-point scale), IPOHE",[9],4 (61-80%)
same,"percentage damage caused to the plant (five-point scale), AMARE",[10],5 (81-100%)
CCSCCn1nc(C(F)F)cc1Cc1ncc(Cl)cn1 [Compound 1.030],"percentage damage caused to the plant (five-point scale), SETFA",Setaria faberi (SETFA) [1],1 (0-20%)
same,"percentage damage caused to the plant (five-point scale), ECHCG",[2],1 (0-20%)
same,"percentage damage caused to the plant (five-point scale), AMAPA",[3],1 (0-20%)
same,"percentage damage caused to the plant (five-point scale), IPOHE",[4],1 (0-20%)
same,"percentage damage caused to the plant (five-point scale), AMARE",[5],1 (0-20%)
same,"percentage damage caused to the plant (five-point scale), SETFA",Setaria faberi (SETFA) [6],4 (61-80%)
same,"percentage damage caused to the plant (five-point scale), ECHCG",[7],2 (21-40%)
same,"percentage damage caused to the plant (five-point scale), AMAPA",[8],5 (81-100%)
same,"percentage damage caused to the plant (five-point scale), IPOHE",[9],5 (81-100%)
same,"percentage damage caused to the plant (five-point scale), AMARE",[10],5 (81-100%)
C=CCn1nc(C(F)F)cc1Cc1ncc(Cl)cn1 [Compound 1.026],"percentage damage caused to the plant (five-point scale), SETFA",Setaria faberi (SETFA) [1],1 (0-20%)
same,"percentage damage caused to the plant (five-point scale), ECHCG",[2],1 (0-20%)
same,"percentage damage caused to the plant (five-point scale), AMAPA",[3],1 (0-20%)
same,"percentage damage caused to the plant (five-point scale), IPOHE",[4],1 (0-20%)
same,"percentage damage caused to the plant (five-point scale), AMARE",[5],1 (0-20%)
same,"percentage damage caused to the plant (five-point scale), SETFA",Setaria faberi (SETFA) [6],1 (0-20%)
same,"percentage damage caused to the plant (five-point scale), ECHCG",[7],1 (0-20%)
same,"percentage damage caused to the plant (five-point scale), AMAPA",[8],1 (0-20%)
same,"percentage damage caused to the plant (five-point scale), IPOHE",[9],1 (0-20%)
same,"percentage damage caused to the plant (five-point scale), AMARE",[10],1 (0-20%)
FC(F)CCn1nc(C(F)(F)Cl)cc1Cc1ncc(Cl)cn1 [Compound 1.031],"percentage damage caused to the plant (five-point scale), SETFA",Setaria faberi (SETFA) [1],5 (81-100%)
same,"percentage damage caused to the plant (five-point scale), ECHCG",[2],5 (81-100%)
same,"percentage damage caused to the plant (five-point scale), AMAPA",[3],5 (81-100%)
same,"percentage damage caused to the plant (five-point scale), IPOHE",[4],5 (81-100%)
same,"percentage damage caused to the plant (five-point scale), AMARE",[5],5 (81-100%)
same,"percentage damage caused to the plant (five-point scale), SETFA",Setaria faberi (SETFA) [6],4 (61-80%)
same,"percentage damage caused to the plant (five-point scale), ECHCG",[7],3 (41-60%)
same,"percentage damage caused to the plant (five-point scale), AMAPA",[8],4 (61-80%)
same,"percentage damage caused to the plant (five-point scale), IPOHE",[9],4 (61-80%)
same,"percentage damage caused to the plant (five-point scale), AMARE",[10],4 (61-80%)
Fc1cc(Cl)cnc1Cc1cc(C(F)(F)F)nn1CCC(F)(F)F [Compound 1.018],"percentage damage caused to the plant (five-point scale), SETFA",Setaria faberi (SETFA) [1],5 (81-100%)
same,"percentage damage caused to the plant (five-point scale), ECHCG",[2],5 (81-100%)
same,"percentage damage caused to the plant (five-point scale), AMAPA",[3],5 (81-100%)
same,"percentage damage caused to the plant (five-point scale), IPOHE",[4],3 (41-60%)
same,"percentage damage caused to the plant (five-point scale), AMARE",[5],5 (81-100%)
same,"percentage damage caused to the plant (five-point scale), SETFA",Setaria faberi (SETFA) [6],4 (61-80%)
same,"percentage damage caused to the plant (five-point scale), ECHCG",[7],4 (61-80%)
same,"percentage damage caused to the plant (five-point scale), AMAPA",[8],4 (61-80%)
same,"percentage damage caused to the plant (five-point scale), IPOHE",[9],4 (61-80%)
same,"percentage damage caused to the plant (five-point scale), AMARE",[10],1 (0-20%)
FC(F)c1cc(Cc2ncc(Cl)cn2)n(CCn2ccc(C(F)(F)F)n2)n1 [Compound 1.038],"percentage damage caused to the plant (five-point scale), SETFA",Setaria faberi (SETFA) [1],2 (21-40%)
same,"percentage damage caused to the plant (five-point scale), ECHCG",[2],2 (21-40%)
same,"percentage damage caused to the plant (five-point scale), AMAPA",[3],2 (21-40%)
same,"percentage damage caused to the plant (five-point scale), IPOHE",[4],1 (0-20%)
same,"percentage damage caused to the plant (five-point scale), AMARE",[5],1 (0-20%)
same,"percentage damage caused to the plant (five-point scale), SETFA",Setaria faberi (SETFA) [6],1 (0-20%)
same,"percentage damage caused to the plant (five-point scale), ECHCG",[7],1 (0-20%)
same,"percentage damage caused to the plant (five-point scale), AMAPA",[8],1 (0-20%)
same,"percentage damage caused to the plant (five-point scale), IPOHE",[9],1 (0-20%)
same,"percentage damage caused to the plant (five-point scale), AMARE",[10],1 (0-20%)
CS(=O)(=O)CCn1nc(C(F)F)cc1Cc1ncc(Cl)cn1 [Compound 1.023],"percentage damage caused to the plant (five-point scale), SETFA",Setaria faberi (SETFA) [1],1 (0-20%)
same,"percentage damage caused to the plant (five-point scale), ECHCG",[2],1 (0-20%)
same,"percentage damage caused to the plant (five-point scale), AMAPA",[3],1 (0-20%)
same,"percentage damage caused to the plant (five-point scale), IPOHE",[4],2 (21-40%)
same,"percentage damage caused to the plant (five-point scale), AMARE",[5],1 (0-20%)
same,"percentage damage caused to the plant (five-point scale), SETFA",Setaria faberi (SETFA) [6],1 (0-20%)
same,"percentage damage caused to the plant (five-point scale), ECHCG",[7],1 (0-20%)
same,"percentage damage caused to the plant (five-point scale), AMAPA",[8],2 (21-40%)
same,"percentage damage caused to the plant (five-point scale), IPOHE",[9],3 (41-60%)
same,"percentage damage caused to the plant (five-point scale), AMARE",[10],2 (21-40%)
FC(F)c1cc(Cc2ncc(Cl)cn2)n(CCBr)n1 [Compound 1.025],"percentage damage caused to the plant (five-point scale), SETFA",Setaria faberi (SETFA) [1],1 (0-20%)
same,"percentage damage caused to the plant (five-point scale), ECHCG",[2],2 (21-40%)
same,"percentage damage caused to the plant (five-point scale), AMAPA",[3],4 (61-80%)
same,"percentage damage caused to the plant (five-point scale), IPOHE",[4],1 (0-20%)
same,"percentage damage caused to the plant (five-point scale), AMARE",[5],4 (61-80%)
same,"percentage damage caused to the plant (five-point scale), SETFA",Setaria faberi (SETFA) [6],1 (0-20%)
same,"percentage damage caused to the plant (five-point scale), ECHCG",[7],1 (0-20%)
same,"percentage damage caused to the plant (five-point scale), AMAPA",[8],1 (0-20%)
same,"percentage damage caused to the plant (five-point scale), IPOHE",[9],1 (0-20%)
same,"percentage damage caused to the plant (five-point scale), AMARE",[10],1 (0-20%)
CCCCn1nc(C(F)F)cc1Cc1ncc(Cl)cc1F [Compound 1.013],"percentage damage caused to the plant (five-point scale), SETFA",Setaria faberi (SETFA) [1],3 (41-60%)
same,"percentage damage caused to the plant (five-point scale), ECHCG",[2],3 (41-60%)
same,"percentage damage caused to the plant (five-point scale), AMAPA",[3],3 (41-60%)
same,"percentage damage caused to the plant (five-point scale), IPOHE",[4],2 (21-40%)
same,"percentage damage caused to the plant (five-point scale), AMARE",[5],4 (61-80%)
same,"percentage damage caused to the plant (five-point scale), SETFA",Setaria faberi (SETFA) [6],1 (0-20%)
same,"percentage damage caused to the plant (five-point scale), ECHCG",[7],1 (0-20%)
same,"percentage damage caused to the plant (five-point scale), AMAPA",[8],2 (21-40%)
same,"percentage damage caused to the plant (five-point scale), IPOHE",[9],2 (21-40%)
same,"percentage damage caused to the plant (five-point scale), AMARE",[10],2 (21-40%)
N#CC1(Cn2nc(C(F)F)cc2Cc2ccc(Cl)cc2)CC1 [Compound 1.027],"percentage damage caused to the plant (five-point scale), SETFA",Setaria faberi (SETFA) [1],2 (21-40%)
same,"percentage damage caused to the plant (five-point scale), ECHCG",[2],1 (0-20%)
same,"percentage damage caused to the plant (five-point scale), AMAPA",[3],1 (0-20%)
same,"percentage damage caused to the plant (five-point scale), IPOHE",[4],2 (21-40%)
same,"percentage damage caused to the plant (five-point scale), AMARE",[5],1 (0-20%)
same,"percentage damage caused to the plant (five-point scale), SETFA",Setaria faberi (SETFA) [6],1 (0-20%)
same,"percentage damage caused to the plant (five-point scale), ECHCG",[7],1 (0-20%)
same,"percentage damage caused to the plant (five-point scale), AMAPA",[8],1 (0-20%)
same,"percentage damage caused to the plant (five-point scale), IPOHE",[9],1 (0-20%)
same,"percentage damage caused to the plant (five-point scale), AMARE",[10],1 (0-20%)
